# Measured values: patent US20230286928A1, “HETEROCYCLIC COMPOUNDS USEFUL IN THE TREATMENT OF DISEASE” (Epigen Biosciences, Inc., priority 2018, published 2023)
# Biological target: T1, LPA1R (Homo sapiens, UniProt Q92633)
# T1 construct: host or cells: LPA1R expressing cells (Millipore, GPCR Profiler)
# Assay: Calcium flux assay: inhibition of LPA-stimulated Ca2+ flux (FLIPR, antagonist mode)
# Format: cell-based
# Settings: LPA1R Ca2+ flux functional assay, LPA1R expressing cells challenged with EC80 of LPA, read-out: LPA1 R Antagonist Activity
# Method: Inhibition of LPA-stimulated Ca^2+ flux was used to assess compound potency using FLIPR technology in a 96 well plate format. The assay buffer used was a modified Hanks Balanced Salt Solution (HBSS) where HBSS was supplemented to contain 20 mM HEPES and 2.5 mM Probenecid at pH7.4 (Millipore, GPCR Profiler®). LPA1R expressing cells (Millipore) were plated and prepared 24 hours prior to assay of test articles. Ca^2+ ion flux was assessed from fluorescence of a Fluo-based No Wash Ca^2+ dye. Antagonist data are generated from plates with LPA concentrations sufficient to generate 80% efficacy [EC80]. Percentage inhibition was calculated from a reduction of efficacy according to concentration of compounds of Formula I-VI. For dose responses the inhibition data was used to calculate compound IC50.
# The agonist assay was conducted on a FLIPR^TETRA instrument where the test compound(s), vehicle controls, and reference agonist were added to the assay plate after a fluorescence baseline was established. The agonist assay was a total of 180 seconds and was used to assess each compound's ability to activate each GPCR assayed. Upon completion of the agonist assay, the assay plate was removed from the FLIPR^TETRA and incubated at 25° C. for seven (7) minutes. After the incubation period, the assay plate was placed back in the FLIPR^TETRA and the antagonist assay was initiated.
# Antagonist Assay: Using EC80 potency values determined during the agonist assay, all pre-incubated sample compound wells were challenged with EC80 concentration of reference agonist after establishment of a fluorescence baseline. The antagonist assay was conducted using the same assay plate that was used for the agonist assay. The antagonist assay was conducted on a FLIPR^TETRA instrument where 9 vehicle controls and EC80 concentration of reference agonist were added to appropriate wells. The antagonist assay was a total of 180 seconds and was used to assess each compound's ability to inhibit each GPCR assayed.
# Data Processing: All assay plate data were subjected to appropriate baseline corrections. After baseline corrections were applied, maximum fluorescence values were exported and data processed to calculate percentage activation (relative to Emax reference agonist and vehicle control values), percentage inhibition (relative to EC80 and vehicle control values), and additional statistical values (i.e. Z′, percentage variation between replicate data values) to assess the quality of each plate. Where assay plate data were rejected, additional experiments were conducted. All dose response curves were generated using GraphPad Prism. The curves were fit by utilizing “Sigmoidal Dose Response (Variable Slope)” equation where the bottom parameter was fixed to “0.” Where appropriate, the top parameter was fixed to “100” to better predict potency values when a full curve was not generated by the concentrations assayed.
# T1 sequence (Q92633 whole entry): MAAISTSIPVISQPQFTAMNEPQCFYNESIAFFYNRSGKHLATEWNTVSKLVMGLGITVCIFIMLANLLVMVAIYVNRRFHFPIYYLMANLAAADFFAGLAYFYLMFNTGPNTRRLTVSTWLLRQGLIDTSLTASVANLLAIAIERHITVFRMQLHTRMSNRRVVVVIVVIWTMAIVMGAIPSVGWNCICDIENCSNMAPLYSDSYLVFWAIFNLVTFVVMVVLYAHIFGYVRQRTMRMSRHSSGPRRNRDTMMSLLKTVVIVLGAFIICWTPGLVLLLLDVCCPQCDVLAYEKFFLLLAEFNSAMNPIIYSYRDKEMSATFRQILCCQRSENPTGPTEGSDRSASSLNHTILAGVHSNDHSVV
row,Compound,IC50 [nM]
1,"C[C@@H](OC(=O)Nc1c(F)cnn1-c1ccc(-c2ccc(C3(C(=O)O)CC3)cc2)cc1)c1ccccc1 [Compound 3, (R)-1-(4′-(4-fluoro-5-(((1-phenylethoxy)carbonyl)amino)-1H-pyrazol-1-yl)-[1,1′-biphenyl]-4-yl)cyclopropane-1-carboxylic acid]",< 300
2,"C[C@@H](OC(=O)Nc1c(Cl)cnn1-c1ccc(-c2ccc(C3(C(=O)O)CC3)cc2)cc1)c1ccccc1 [Compound 4, (R)-1-(4′-(4-chloro-5-(((1-phenylethoxy)carbonyl)amino)-1H-pyrazol-1-yl)-[1,1′-biphenyl]-4-yl)cyclopropane-1-carboxylic acid]",< 300
3,"C[C@@H](OC(=O)Nc1c(C#N)cnn1-c1ccc(-c2ccc(C3(C(=O)O)CC3)cc2)cc1)c1ccccc1Cl [Compound 6, (R)-1-(4′-(5-(((1-(2-chlorophenyl)ethoxy)carbonyl)amino)-4-cyano-1H-pyrazol-1-yl)-[1,1′-biphenyl]-4-yl)cyclopropane-1-carboxylic acid]",< 300
4,"C[C@@H](OC(=O)Nc1c(F)cnn1-c1ccc(-c2ccc(C3(C(=O)O)CC3)cc2F)cc1)c1ccccc1 [Compound 8, (R)-1-(2-fluoro-4′-(4-fluoro-5-(((1-phenylethoxy)carbonyl)amino)-1H-pyrazol-1-yl)-[1,1′-biphenyl]-4-yl)cyclopropane-1-carboxylic acid]",< 300
5,"C[C@@H](OC(=O)Nc1c(F)cnn1-c1ccc(-c2ccc(C3(C(=O)O)CC3)cc2Cl)cc1)c1ccccc1 [Compound 11, (R)-1-(2-chloro-4′-(4-fluoro-5-(((1-phenylethoxy)carbonyl)amino)-1H-pyrazol-1-yl)-[1,1′-biphenyl]-4-yl)cyclopropane-1-carboxylic acid]",< 300
6,"C[C@@H](OC(=O)Nc1c(F)cnn1-c1ccc(-c2ccc(C3(C(=O)NS(C)(=O)=O)CC3)cc2F)cc1)c1ccccc1Cl [Compound 16, (R)-1-(2-chlorophenyl)ethyl (4-fluoro-1-(2′-fluoro-4′-(1-((methylsulfonyl)carbamoyl)cyclopropyl)-[1,1′-biphenyl]-4-yl)-1H-pyrazol-5-yl)carbamate]",< 300
7,"C[C@@H](OC(=O)Nc1c(F)cnn1-c1ccc(-c2ccc(C3(C(=O)NS(C)(=O)=O)CC3)cc2F)cc1)c1ccccc1 [Compound 17, (R)-1-phenylethyl (4-fluoro-1-(2′-fluoro-4′-(1-((methylsulfonyl)carbamoyl)cyclopropyl)-[1,1′-biphenyl]-4-yl)-1H-pyrazol-5-yl)carbamate]",< 300
8,"C[C@@H](OC(=O)Nc1c(Cl)cnn1-c1ccc(-c2ccc(C3(C(=O)NS(C)(=O)=O)CC3)cc2)cc1)c1ccccc1 [Compound 19, (R)-1-phenylethyl (4-chloro-1-(4′-(1-((methylsulfonyl)carbamoyl)cyclopropyl)-[1,1′-biphenyl]-4-yl)-1H-pyrazol-5-yl)carbamate]",< 300
9,"C[C@@H](OC(=O)Nc1c(F)cnn1-c1ccc(-c2ccc(C3(C(=O)NS(C)(=O)=O)CC3)cc2)cc1)c1ccccc1Cl [Compound 20, (R)-1-(2-chlorophenyl)ethyl (4-fluoro-1-(4′-(1-((methylsulfonyl)carbamoyl)cyclopropyl)-[1,1′-biphenyl]-4-yl)-1H-pyrazol-5-yl)carbamate]",< 300

# Results, then the compound that gave them:
row,IC50 [nM],Compound
1,< 300,"C[C@@H](OC(=O)Nc1c(F)cnn1-c1ccc(-c2ccc(C3(C(=O)O)CC3)cc2)nc1)c1ccccc1Cl [Compound 1, (R)-1-(4-(5-(5-(((1-(2-chlorophenyl)ethoxy)carbonyl)amino)-4-fluoro-1H-pyrazol-1-yl)pyridin-2-yl)phenyl)cyclopropane-1-carboxylic acid]"
2,< 300,"C[C@@H](OC(=O)Nc1c(Cl)cnn1-c1ccc(-c2ccc(C3(C(=O)O)CC3)cc2)nc1)c1ccccc1Cl [Compound 2, (R)-1-(4-(5-(4-chloro-5-(((1-(2-chlorophenyl)ethoxy)carbonyl)amino)-1H-pyrazol-1-yl)pyridin-2-yl)phenyl)cyclopropane-1-carboxylic acid]"
3,< 300,"C[C@@H](OC(=O)Nc1c(C#N)cnn1-c1ccc(-c2ccc(C3(C(=O)O)CC3)cc2)cc1)c1ccccc1 [Compound 5, (R)-1-(4′-(4-cyano-5-(((1-phenylethoxy)carbonyl)amino)-1H-pyrazol-1-yl)-[1,1′-biphenyl]-4-yl)cyclopropane-1-carboxylic acid]"
4,< 300,"C[C@@H](OC(=O)Nc1c(F)cnn1-c1ccc(-c2ccc(C3(C(=O)O)CC3)c(F)c2)cc1)c1ccccc1 [Compound 7, (R)-1-(3-fluoro-4′-(4-fluoro-5-(((1-phenylethoxy)carbonyl)amino)-1H-pyrazol-1-yl)-[1,1′-biphenyl]-4-yl)cyclopropane-1-carboxylic acid]"
5,< 300,"C[C@@H](OC(=O)Nc1c(Cl)cnn1-c1ccc(-c2ccc(C3(C(=O)O)CC3)c(F)c2)cc1)c1ccccc1 [Compound 9, (R)-1-(4′-(4-chloro-5-(((1-phenylethoxy)carbonyl)amino)-1H-pyrazol-1-yl)-3-fluoro-[1,1′-biphenyl]-4-yl)cyclopropane-1-carboxylic acid]"
6,< 300,"C[C@@H](OC(=O)Nc1c(Cl)cnn1-c1ccc(-c2ccc(C3(C(=O)O)CC3)cc2F)cc1)c1ccccc1 [Compound 10, (R)-1-(4′-(4-chloro-5-(((1-phenylethoxy)carbonyl)amino)-1H-pyrazol-1-yl)-2-fluoro-[1,1′-biphenyl]-4-yl)cyclopropane-1-carboxylic acid]"
7,< 300,"C[C@@H](OC(=O)Nc1c(Cl)cnn1-c1ccc(-c2ccc(C3(C(=O)O)CC3)cc2Cl)cc1)c1ccccc1 [Compound 12, (R)-1-(2-chloro-4′-(4-chloro-5-(((1-phenylethoxy)carbonyl)amino)-1H-pyrazol-1-yl)-[1,1′-biphenyl]-4-yl)cyclopropane-1-carboxylic acid]"
8,< 300,"Cc1cc(C2(C(=O)O)CC2)ccc1-c1ccc(-n2ncc(F)c2NC(=O)O[C@H](C)c2ccccc2)cc1 [Compound 13, (R)-1-(4′-(4-fluoro-5-(((1-phenylethoxy)carbonyl)amino)-1H-pyrazol-1-yl)-2-methyl-[1,1′-biphenyl]-4-yl)cyclopropane-1-carboxylic acid]"
9,< 300,"Cc1cc(C2(C(=O)O)CC2)ccc1-c1ccc(-n2ncc(Cl)c2NC(=O)O[C@H](C)c2ccccc2)cc1 [Compound 14, (R)-1-(4′-(4-chloro-5-(((1-phenylethoxy)carbonyl)amino)-1H-pyrazol-1-yl)-2-methyl-[1,1′-biphenyl]-4-yl)cyclopropane-1-carboxylic acid]"
10,< 300,"C[C@@H](OC(=O)Nc1c(F)cnn1-c1ccc(-c2ccc(C3(C(N)=O)CC3)cc2)cc1)c1ccccc1Cl [Compound 15, (R)-1-(2-chlorophenyl)ethyl (1-(4′-(1-carbamoylcyclopropyl)-[1,1′-biphenyl]-4-yl)-4-fluoro-1H-pyrazol-5-yl)carbamate]"
11,< 300,"C[C@@H](OC(=O)Nc1c(Cl)cnn1-c1ccc(-c2ccc(C3(C(=O)NS(C)(=O)=O)CC3)cc2F)cc1)c1ccccc1Cl [Compound 18, (R)-1-(2-chlorophenyl)ethyl (4-chloro-1-(2′-fluoro-4′-(1-((methylsulfonyl)carbamoyl)cyclopropyl)-[1,1′-biphenyl]-4-yl)-1H-pyrazol-5-yl)carbamate]"
